What was measured:
Estrogen receptor beta [1] = target: T1, Estrogen receptor beta (Homo sapiens, UniProt Q92731); test: Displacement of [3H]17-beta-estradiol from human Estrogen receptor beta; Not active means no effect at < 1000 nM
Estrogen receptor [2] = target: T2, Estrogen receptor (Homo sapiens, UniProt P03372); conditions: mcf7
T2 sequence (P03372 whole entry): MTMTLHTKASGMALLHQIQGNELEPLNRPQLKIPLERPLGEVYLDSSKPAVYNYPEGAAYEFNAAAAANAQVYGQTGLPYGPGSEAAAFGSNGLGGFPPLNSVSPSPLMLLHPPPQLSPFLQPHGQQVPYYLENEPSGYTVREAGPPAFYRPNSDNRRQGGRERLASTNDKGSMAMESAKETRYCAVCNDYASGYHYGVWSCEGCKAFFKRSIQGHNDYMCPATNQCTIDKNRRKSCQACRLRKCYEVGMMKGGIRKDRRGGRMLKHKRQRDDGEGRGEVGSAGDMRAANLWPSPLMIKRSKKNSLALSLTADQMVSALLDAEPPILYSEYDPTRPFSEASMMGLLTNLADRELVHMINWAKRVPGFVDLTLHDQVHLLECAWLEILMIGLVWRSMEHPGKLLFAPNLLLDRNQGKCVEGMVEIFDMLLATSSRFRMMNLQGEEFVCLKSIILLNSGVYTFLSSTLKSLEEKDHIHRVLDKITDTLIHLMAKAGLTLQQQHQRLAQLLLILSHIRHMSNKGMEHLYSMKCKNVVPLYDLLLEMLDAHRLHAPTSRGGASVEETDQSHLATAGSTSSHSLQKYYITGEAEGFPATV

Estrogen receptor [3] = target: T2, Estrogen receptor
Description: Agonist effect on transcriptional activation in MCF-7 cells expressing estrogen receptor alpha

Estrogen receptor beta [4] = target: T1, Estrogen receptor beta
Estrogen receptor [5] = target: T2, Estrogen receptor; remark: listed apart in the source
Estrogen receptor [6] = target: T2, Estrogen receptor; conditions: mcf7; remark: listed apart in the source
Estrogen receptor [7] = target: T2, Estrogen receptor; remark: listed apart in the source
Description: Antagonist effect on transcriptional activation in MCF-7 cells expressing estrogen receptor alpha

T1 sequence (Q92731 whole entry): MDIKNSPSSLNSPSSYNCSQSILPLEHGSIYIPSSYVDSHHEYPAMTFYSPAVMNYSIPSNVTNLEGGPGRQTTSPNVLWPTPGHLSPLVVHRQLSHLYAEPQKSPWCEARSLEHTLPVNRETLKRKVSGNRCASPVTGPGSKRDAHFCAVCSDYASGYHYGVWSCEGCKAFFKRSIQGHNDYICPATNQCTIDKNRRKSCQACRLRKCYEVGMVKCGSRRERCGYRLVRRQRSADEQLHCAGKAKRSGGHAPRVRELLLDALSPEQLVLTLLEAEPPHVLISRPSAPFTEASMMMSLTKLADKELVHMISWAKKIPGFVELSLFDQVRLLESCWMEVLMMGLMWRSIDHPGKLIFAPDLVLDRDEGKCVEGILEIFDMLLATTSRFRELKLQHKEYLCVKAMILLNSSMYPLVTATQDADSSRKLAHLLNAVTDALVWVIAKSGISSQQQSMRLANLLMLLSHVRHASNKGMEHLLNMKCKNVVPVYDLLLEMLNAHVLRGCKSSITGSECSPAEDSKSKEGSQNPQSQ

With COc1ccc2c(c1)C[C@@H](Sc1ccc(OCCN3CCCCC3)cc1)[C@@H]1[C@@H]2CC[C@]2(C)[C@@H](O)CC[C@@H]12 the IC50 (Estrogen receptor beta [1]) was “Not Active”.

In the case of C[C@]12CC[C@@H]3c4ccc(O)cc4C[C@@H](Sc4ccc(/C=C/C(=O)O)cc4)[C@H]3[C@@H]1CC[C@@H]2O, the IC50 (Estrogen receptor [2]) is reported as “Not Active”, the EC50 (Estrogen receptor [3]) is reported as 0.013 µM and the IC50 (Estrogen receptor beta [4]) is reported as 0.021 µM. It also gave an IC50 (Estrogen receptor [5]) of 0.046 µM.

With CCCCN(C)C(=O)CCCCCCCCCCS[C@@H]1Cc2cc(O)ccc2[C@H]2CC[C@]3(C)[C@@H](O)CC[C@H]3[C@@H]21 the EC50 (Estrogen receptor [6]) was “Not Active”, the IC50 (Estrogen receptor beta [4]) was 0.009 µM and the IC50 (Estrogen receptor [5]) was 0.009 µM. The IC50 (Estrogen receptor [7]) was 0.0035 µM.

Work on CCCCN(C)C(=O)CCCCCCCCCCS[C@H]1[C@@H]2[C@H](CC[C@]3(C)[C@@H](O)CC[C@@H]23)c2ccc(O)cc2[C@H]1O yielded an EC50 (Estrogen receptor [3]) of 0.04 µM, an IC50 (Estrogen receptor beta [4]) of 0.032 µM and an IC50 (Estrogen receptor [5]) of 0.032 µM. It also gave an IC50 (Estrogen receptor [7]) of 0.316 µM.

CCCCN(C)C(=O)CCCCCCCCCCS[C@@H]1C(=O)c2cc(O)ccc2[C@H]2CC[C@]3(C)[C@@H](O)CC[C@H]3[C@H]12 showed an EC50 (Estrogen receptor [3]) of 0.028 µM, an IC50 (Estrogen receptor beta [4]) of 0.037 µM and an IC50 (Estrogen receptor [5]) of 0.033 µM. It also gave an IC50 (Estrogen receptor [7]) of 0.519 µM.

C[C@]12CC[C@@H]3c4ccc(O)cc4C(O)[C@@H](Sc4ccc(Br)cc4)[C@H]3[C@@H]1CC[C@@H]2O (some centres not stated) was tested, and the IC50 (Estrogen receptor [2]) was “Not Active”, the EC50 (Estrogen receptor [3]) was 0.007 µM and the IC50 (Estrogen receptor beta [4]) was 0.063 µM. The IC50 (Estrogen receptor [5]) was 0.397 µM.

For CC(=O)O[C@H]1CC[C@H]2[C@@H]3[C@H](Sc4ccc(Br)cc4)C(=O)c4cc(O)ccc4[C@H]3CC[C@]12C, the IC50 (Estrogen receptor [2]) was “Not Active” and the IC50 (Estrogen receptor beta [1]) was “Not Active”.

In the case of CN(C)C(=O)/C=C/c1ccc(S[C@@H]2Cc3cc(O)ccc3[C@H]3CC[C@]4(C)[C@@H](O)CC[C@H]4[C@@H]32)cc1, the IC50 (Estrogen receptor [2]) is reported as “Not Active”, the EC50 (Estrogen receptor [3]) is reported as 0.173 µM and the IC50 (Estrogen receptor beta [4]) is reported as 0.059 µM. The IC50 (Estrogen receptor [5]) was 0.094 µM.

— ChEMBL document CHEMBL1132758, “Synthesis and estrogenic activities of novel 7-thiosubstituted estratriene derivatives” (Bioorg Med Chem Lett, 2000)
